Data set [1] concerns the target T1, DOR (Mus musculus, UniProt P32300). As to the kind of experiment: [35S]GTP-γ-S binding assay, agonist stimulation, DOR. The following applies: for DOR EC50: stimulation of [35S]GTP-γ-S binding, no stim = no stimulation at 10 µM.
Data set [2] has as its target T2, hMOR (Homo sapiens, UniProt P35372). As to the kind of experiment: [35S]GTP-γ-S binding assay, agonist stimulation, MOR. The following applies: stimulation of [35S]GTP-γ-S binding; no stim = no stimulation at 10 µM. The format is biochemical.
The target of data set [3] is T3, hKOR (Homo sapiens, UniProt P41145). As to the kind of experiment: [35S]GTP-γ-S binding assay, antagonist shift design, KOR. The format is biochemical.
T3 sequence (P41145 whole entry): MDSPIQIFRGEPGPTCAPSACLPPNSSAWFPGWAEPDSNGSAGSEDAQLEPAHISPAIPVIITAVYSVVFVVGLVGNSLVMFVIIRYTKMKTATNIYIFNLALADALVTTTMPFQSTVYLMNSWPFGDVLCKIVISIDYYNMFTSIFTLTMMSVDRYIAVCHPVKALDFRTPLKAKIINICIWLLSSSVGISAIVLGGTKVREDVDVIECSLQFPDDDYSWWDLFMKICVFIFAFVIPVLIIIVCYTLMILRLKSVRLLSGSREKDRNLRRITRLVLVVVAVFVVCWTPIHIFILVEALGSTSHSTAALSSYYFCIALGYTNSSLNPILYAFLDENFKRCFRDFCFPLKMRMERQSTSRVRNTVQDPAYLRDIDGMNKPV
Data set [4] deals with T1, DOR. As to the kind of experiment: [35S]GTP-γ-S binding assay, antagonist shift design, DOR. The format is biochemical.
For data set [5], the target named is T2, hMOR. As to the kind of experiment: [35S]GTP-γ-S binding assay, antagonist shift design, MOR. The format is biochemical.
Data set [6] relates to mice. As to the kind of experiment: 55 °C warm-water tail-withdrawal assay, i.c.v. administration. In kind it is in vivo, Male ICR mice. The following applies: mouse.
In data set [7] the test system is mice. The format is in vivo, Male ICR mice. The following applies: mouse, i.c.v.
Data set [8] deals with T3, hKOR. As to the kind of experiment: [35S]GTP-γ-S binding assay, agonist stimulation, KOR. The format is biochemical. The following applies: stimulation of [35S]GTP-γ-S binding; no stim = no stimulation at 10 µM.
The target of the next data set is hDOR (Homo sapiens, UniProt P41143). Briefly: Radioligand displacement binding, [3H]DADLE, CHO cell membranes expressing hDOR. The following applies: 18a vs 17b, 18d vs 17f.
Chain of hDOR (P41143 whole entry): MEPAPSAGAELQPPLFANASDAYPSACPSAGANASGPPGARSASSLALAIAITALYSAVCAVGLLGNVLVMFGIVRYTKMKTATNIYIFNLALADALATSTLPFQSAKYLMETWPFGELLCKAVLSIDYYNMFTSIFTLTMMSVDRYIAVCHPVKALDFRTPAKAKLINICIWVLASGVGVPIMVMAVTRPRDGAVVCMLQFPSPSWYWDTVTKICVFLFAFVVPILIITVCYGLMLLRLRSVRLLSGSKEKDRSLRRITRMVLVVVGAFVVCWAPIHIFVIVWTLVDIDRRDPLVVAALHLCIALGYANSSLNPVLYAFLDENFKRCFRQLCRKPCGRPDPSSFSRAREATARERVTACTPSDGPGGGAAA

T1 sequence (P32300 whole entry): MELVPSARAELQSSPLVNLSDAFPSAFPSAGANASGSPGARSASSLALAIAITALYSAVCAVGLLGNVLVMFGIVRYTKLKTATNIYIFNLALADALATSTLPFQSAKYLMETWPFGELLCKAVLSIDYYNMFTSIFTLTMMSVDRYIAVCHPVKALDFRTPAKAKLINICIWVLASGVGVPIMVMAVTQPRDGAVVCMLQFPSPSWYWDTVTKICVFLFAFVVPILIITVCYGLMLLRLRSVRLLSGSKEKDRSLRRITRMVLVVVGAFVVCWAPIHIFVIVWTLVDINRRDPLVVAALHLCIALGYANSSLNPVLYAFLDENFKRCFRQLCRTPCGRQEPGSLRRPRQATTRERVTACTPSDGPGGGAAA
T2 sequence (P35372 whole entry): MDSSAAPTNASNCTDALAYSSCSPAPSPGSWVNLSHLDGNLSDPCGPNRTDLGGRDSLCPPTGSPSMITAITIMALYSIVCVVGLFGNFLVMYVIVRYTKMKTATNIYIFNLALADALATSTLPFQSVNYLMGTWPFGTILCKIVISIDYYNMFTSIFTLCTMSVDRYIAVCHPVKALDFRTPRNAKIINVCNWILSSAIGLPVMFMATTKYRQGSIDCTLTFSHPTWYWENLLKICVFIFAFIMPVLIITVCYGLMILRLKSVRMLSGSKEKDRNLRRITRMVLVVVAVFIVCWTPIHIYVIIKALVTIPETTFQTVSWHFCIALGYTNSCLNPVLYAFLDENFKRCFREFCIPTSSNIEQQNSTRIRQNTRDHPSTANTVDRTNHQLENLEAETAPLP

Regarding `CO[C@@]12Cc3cc(-c4ccc(Cl)cc4)cnc3[C@@H]3Oc4c(O)ccc5c4[C@@]31CCN(CC1CC1)[C@@H]2C5` [17a, 5′-(4-Chlorophenyl)-17-(cyclopropylmethyl)-6,7-didehydro-4,5α-epoxy-3-hydroxy-14-methoxypyrido[2′,3′:6,7]morphinan], the “DOR EC50” value at DOR [1] is given as “no stim ^b”. For the same compound, the “MOR EC50” value at hMOR [2] is on record as “no stim”.
Take `Oc1ccc2c3c1O[C@H]1c4ncc(-c5ccc(Cl)cc5)cc4C[C@@]4(OCc5ccccc5)[C@@H](C2)N(CC2CC2)CC[C@]314` [17b, 14-(Benzyloxy)-5′-(4-chlorophenyl)-17-(cyclopropylmethyl)-6,7-didehydro-4,5α-epoxy-3-hydroxypyrido[2′,3′:6,7]morphinan]: the antagonist equilibrium constant (Kb) on hKOR [3] came out at 13 ± 3 nM; on DOR [4], 0.64 ± 0.11 nM; at hMOR [5], 11 ± 1 nM. For the same compound, the “DOR EC50” value on DOR [1] is reported as “no stim”. Also, the “MOR EC50” value on hMOR [2] was “no stim”.
On to `Oc1ccc2c3c1O[C@H]1c4ncc(-c5ccc(Cl)cc5)cc4C[C@@]4(OC/C=C/c5ccccc5)[C@@H](C2)N(CC2CC2)CC[C@]314` [17c, 5′-(4-Chlorophenyl)-14-cinnamyloxy-17-(cyclopropylmethyl)-6,7-didehydro-4,5α-epoxy-3-hydroxypyrido[2′,3′:6,7]morphinan], for which the “DOR EC50” value at DOR [1] is reported as “no stim”. In addition, at hMOR [2], the “MOR EC50” value was “no stim”.
For `Oc1ccc2c3c1O[C@H]1c4ncc(-c5ccc(Cl)cc5)cc4C[C@@]4(OCCCc5ccccc5)[C@@H](C2)N(CC2CC2)CC[C@]314` [17d, 5′-(4-Chlorophenyl)-17-(cyclopropylmethyl)-6,7-didehydro-4,5α-epoxy-3-hydroxy-14-(3-phenylpropoxy)pyrido[2′,3′:6,7]morphinan], the “dose for maximal antinociception” value in the data set with mice [6] came out at 1 nmol. For the same compound, the “DOR EC50” value on DOR [1] is “no stim”. The antagonist dissociation constant (Kb) on DOR [4] stood at 0.091 ± 0.01 nM.
In the case of `CO[C@@]12Cc3cc(-c4ccc(Cl)cc4)cnc3[C@@H]3Oc4c(O)ccc5c4[C@@]31CCN(C)[C@@H]2C5` [17e, 5′-(4-Chlorophenyl)-6,7-didehydro-4,5α-epoxy-3-hydroxy-14-methoxy-17-methylpyrido[2′,3′:6,7]morphinan], the antagonist dissociation constant (Kb) was found to be 17 ± 0.13 nM at hKOR [3] and 1.6 ± 0.35 nM at DOR [4]. For the same compound, the “dose for maximal antinociception” value in the data set with mice [6] is reported as 10 nmol. In addition, in the data set with mice [6] (tail-withdrawal), the “fold weaker analgesic effect than other tested ligands” value was found to be 6 fold. The “DOR EC50” value at DOR [1] is on record as “no stim”.
For `CN1CC[C@]23c4c5ccc(O)c4O[C@H]2c2ncc(-c4ccc(Cl)cc4)cc2C[C@@]3(OCc2ccccc2)[C@H]1C5` [17f, 14-Benzyloxy-5′-(4-chlorophenyl)-6,7-didehydro-4,5α-epoxy-3-hydroxy-17-methylpyrido[2′,3′:6,7]morphinan], the antagonist dissociation constant (Kb) on hKOR [3] was determined as 83 ± 14 nM; on DOR [4] it was 4.54 ± 0.81 nM. The compound further yielded a concentration giving a half-maximal response (EC50) on DOR [1] of 11 ± 1 nM.
`CN1CC[C@]23c4c5ccc(O)c4O[C@H]2c2ncc(-c4ccc(Cl)cc4)cc2C[C@@]3(OC/C=C/c2ccccc2)[C@H]1C5` [17g, 5′-(4-Chlorophenyl)-14-cinnamyloxy-6,7-didehydro-4,5α-epoxy-3-hydroxy-17-methylpyrido[2′,3′:6,7]morphinan]: the “dose for maximal antinociception” value in the data set on mice [6] was determined as 1 nmol. Further, in the data set with mice [7], the “toxicity on repeated administration” value is listed as “undue toxicity”. This compound registered an EC50 at DOR [1] of 0.59 ± 0.05 nM.
Turning to `CN1CC[C@]23c4c5ccc(O)c4O[C@H]2c2ncc(-c4ccc(Cl)cc4)cc2C[C@@]3(OCCCc2ccccc2)[C@H]1C5` [17h, 5′-(4-Chlorophenyl)-6,7-didehydro-4,5α-epoxy-3-hydroxy-17-methyl-14-(3-phenylpropoxy)pyrido[2′,3′:6,7]morphinan], on hKOR [3], the Kb was 6.9 ± 0.02 nM. Also, the “dose for maximal antinociception” value in the data set on mice [6] is 1 nmol. For the same compound, at hKOR [8], the “KOR EC50” value is listed as “no stim”. For the same compound, the “toxicity on repeated administration” value in the data set on mice [7] is on record as “undue toxicity”. This compound had an EC50 at DOR [1] of 0.27 ± 0.03 nM.
Regarding `O=C(O[C@@]12Cc3cc(-c4ccc(Cl)cc4)cnc3[C@@H]3Oc4c(O)ccc5c4[C@@]31CCN(CC1CC1)[C@@H]2C5)c1ccccc1` [18a, 14-Benzoyloxy-5′-(4-chlorophenyl)-17-(cyclopropylmethyl)-6,7-didehydro-4,5α-epoxy-3-hydroxypyrido[2′,3′:6,7]morphinan], the Kb on hKOR [3] was determined as 126 ± 13 nM; on DOR [4], 218 ± 2 nM; at hMOR [5], 261 ± 36 nM. Further, the “KOR EC50” value at hKOR [8] was “no stim”. Moreover, the “fold weaker in binding to DOR compared to 14-benzyloxy counterpart” value on hDOR came to 45 fold. The “DOR EC50” value on DOR [1] was “no stim”. The “MOR EC50” value on hMOR [2] is listed as “no stim”.
Consider `O=C(Cc1ccccc1)O[C@@]12Cc3cc(-c4ccc(Cl)cc4)cnc3[C@@H]3Oc4c(O)ccc5c4[C@@]31CCN(CC1CC1)[C@@H]2C5` [18b, 5′-(4-Chlorophenyl)-17-(cyclopropylmethyl)-6,7-didehydro-4,5α-epoxy-3-hydroxy-14-(phenylacetoxy)pyrido[2′,3′:6,7]morphinan], for which the Kb stood at 7 ± 2 nM on hKOR [3], 0.37 ± 0.04 nM at DOR [4] and 0.48 ± 0.06 nM at hMOR [5]. Further, the “DOR EC50” value at DOR [1] was “no stim”. On hMOR [2], the “MOR EC50” value was “no stim”.
Regarding `O=C(CCc1ccccc1)O[C@@]12Cc3cc(-c4ccc(Cl)cc4)cnc3[C@@H]3Oc4c(O)ccc5c4[C@@]31CCN(CC1CC1)[C@@H]2C5` [18c, 5′-(4-Chlorophenyl)-17-(cyclopropylmethyl)-6,7-didehydro-4,5α-epoxy-3-hydroxy-14-(3-phenylpropionyloxy)pyrido[2′,3′:6,7]morphinan], the Kb on hKOR [3] worked out at 14 ± 2 nM; on DOR [4], 1.86 ± 0.21 nM; at hMOR [5] it was 13 ± 1.7 nM. Further, the “DOR EC50” value on DOR [1] is on record as “no stim”. Moreover, the “MOR EC50” value on hMOR [2] is given as “no stim”.
As to `CN1CC[C@]23c4c5ccc(O)c4O[C@H]2c2ncc(-c4ccc(Cl)cc4)cc2C[C@@]3(OC(=O)c2ccccc2)[C@H]1C5` [18d, 14-Benzoyloxy-5′-(4-chlorophenyl)-6,7-didehydro-4,5α-epoxy-3-hydroxy-17-methylpyrido[2′,3′:6,7]morphinan], the values for the antagonist equilibrium constant (Kb) at hKOR [3], on DOR [4] and at hMOR [5] were 426 ± 47 nM, 45 ± 6 nM and 1270 ± 166 nM, respectively. Moreover, the “KOR EC50” value at hKOR [8] is “no stim”. In addition, on hDOR, the “fold weaker in binding to DOR compared to 14-benzyloxy counterpart” value is listed as 10 fold. In addition, the “DOR EC50” value on DOR [1] is “no stim”.
On to `CN1CC[C@]23c4c5ccc(O)c4O[C@H]2c2ncc(-c4ccc(Cl)cc4)cc2C[C@@]3(OC(=O)Cc2ccccc2)[C@H]1C5` [18e, 5′-(4-Chlorophenyl)-6,7-didehydro-4,5α-epoxy-3-hydroxy-17-methyl-14-(phenylacetoxy)pyrido[2′,3′:6,7]morphinan], for which the Kb is 198 ± 20 nM on hKOR [3] and 3.38 ± 0.34 nM on DOR [4]. On DOR [1], this compound yielded an EC50 of 19 ± 6 nM.
On to `CN1CC[C@]23c4c5ccc(O)c4O[C@H]2c2ncc(-c4ccc(Cl)cc4)cc2C[C@@]3(OC(=O)CCc2ccccc2)[C@H]1C5` [18f, 5′-(4-Chlorophenyl)-6,7-didehydro-4,5α-epoxy-3-hydroxy-17-methyl-14-(3-phenylpropionyloxy)pyrido[2′,3′:6,7]morphinan], for which the Kb at hKOR [3] was 18 ± 0.2 nM; at DOR [4], 1.64 ± 0.3 nM. This compound registered an EC50 on DOR [1] of 5.52 ± 0.53 nM.
As to `CN1CC[C@]23c4c5ccc(O)c4O[C@H]2[C@@H](O)C=C[C@H]3[C@H]1C5` [Morphine, reference compound], the “dose for maximal antinociception” value with mice [6] was 10 nmol.
Consider `Oc1ccc2c3c1O[C@H]1c4ncc(-c5ccc(Cl)cc5)cc4C=C4[C@@H](C2)N(CC2CC2)CC[C@]431` [compound 23, 5′-(4-Chlorophenyl)-17-(cyclopropylmethyl)-3-hydroxy-6,7,8,14-tetradehydro-4,5α-epoxypyrido[2′,3′:6,7]morphinan], for which the antagonist dissociation constant (Kb) at hKOR [3] is 19 ± 3 nM; at DOR [4], 0.58 ± 0.1 nM; on hMOR [5], 8 ± 0.89 nM. Besides, on hKOR [8], the “KOR EC50” value is “no stim”. The “DOR EC50” value on DOR [1] is listed as “no stim”. For the same compound, on hMOR [2], the “MOR EC50” value was “no stim”.

The values above are taken from PMC3499949 (Journal of medicinal chemistry, 2012).
